Assay results as given in patent US20050080055A1, “Method of treating breast cancer with androgen receptor antagonists” (priority 2003, published 2005).

How the values were obtained:
Test in all cases: Sulforhodamine B (SRB) cytotoxicity assay
Type in all cases: cell-based
DU 145 = settings: Homo sapiens
Procedure: (§1) PPC-1, LNCaP, TSU, PC-3, and DU145 were grown in PRMI-1640 medium containing 2 mM L-glutamine supplemented with 10% fetal bovine serum (FBS). Cells were maintained in a 5% CO2/95% air humidified atmosphere at 37° C.
(§2) The SRB Assay was used to determine cell number during cytotoxocity experiments. The following protocol was used: • 1. Cells were detached with 0.25% trypsin. • 2. Experimental cultures were cultured in 96-well microtiter plates (200 uL growth medium per well; 1,000-200,000 cells per well). • 3. Cultures were fixed with 50 uL 50% TCA (4° C.). (see cell fixation protocol for details). • 4. Fixed cells were stained with 50 uL 0.4% (wt/vol) SRB in 1% acetic acid for 10 minutes. • 5. SRB was removed and the cultures were quickly* rinsed 5 times with 1% acetic acid to remove unbound dye.** * quickly performing rinsing process is to prevent desorption of protein-bound SRB ** completely remove residual wash solution by sharply flicking plates over sink. • 6. Cultures were air-dried overnight until there is no visible moisture. • 7. The cellular protein-bound SRB was dissolved with 200 uL unbuffered Tris base (10 mM, pH 10.5) for 30 minutes on a rocking platform shaker. • 8. Absorbance was read at 540 nm. Fixation of Cells Attached to the Plastic Substratum
(§3) The following protocol was used for fixing cells: • a. 50 uL of 50% TCA (4° C.) were gently layered on the top of growth medium in each well to make a final TCA concentration of 10%. • b. Cultures were incubated at 4° C. for 1 hour. • c. Cultures were washed 5 times with tap water to remove TCA, growth medium, low-molecular-weight metabolites, and serum protein. • d. Plates were air-dried until there was no visible moisture.
(§4) The IC50s of I-31, I-29, S-NTBA and Compound V in different prostate cancer cell lines (DU 145, PC-3, TSU, PPC-l and LNCaP), in a breast cancer cell line (MCF-7), in other cancer cell lines ([…]) and in a control cell line (CV-1) after 1 and 4 days of incubation with the drug, are shown in Tables 2A and B.

LNCaP = settings: Homo sapiens
Procedure: as §1, §2, §3, §4

PC-3 = settings: Homo sapiens
Procedure: as §1, §2, §3, §4

PPC-1 = settings: Homo sapiens
Procedure: as §1, §2, §3, §4

TSU = settings: Homo sapiens, 96 h; drug incubation time 4 days
Procedure: as §1, §2, §3, §4

HT-29 = settings: Homo sapiens
TCCSUP = settings: Homo sapiens, TCC-SUP
MCF-7 = settings: Homo sapiens
Procedure: as §2
The following protocol was used for fixing cells: • a. 50 uL of 50% TCA (4° C.) were gently layered on the top of growth medium in each well to make a final TCA concentration of 10%. • b. Cultures were incubated at 4° C. for 1 hour. • c. […]

[1] = 24 h, drug incubation time 1 day
[2] = 96 h, drug incubation time 4 days

For `C[C@@](O)(CBr)C(=O)Nc1ccc([N+](=O)[O-])c(C(F)(F)F)c1` [S-NTBA], which IC50 (DU 145; DU-145, 24 h, drug incubation time 1 day) is on record?
The IC50 was 5.5 ± 0.6 µM.

What about the IC50 (DU 145; DU-145, 96 h, drug incubation time 4 days) of the same compound?
Its IC50 is 4.6 µM.

What about the IC50 (LNCaP; [1]) of the same compound?
Its IC50 is 1.6 ± 0.5 µM.

And the IC50 (LNCaP; [2])?
The IC50 was 1.8 µM.

What about the IC50 (PC-3; PC-3, 24 h, drug incubation time 1 day) of the same compound?
Its IC50 is 7.9 ± 0.7 µM.

What about the IC50 (PC-3; PC-3, 96 h, drug incubation time 4 days) of the same compound?
The IC50 was 3.7 µM.

What about the IC50 (PPC-1; PPC-1, 24 h, drug incubation time 1 day) of the same compound?
The IC50 was 1.7 ± 0.2 µM.

What about the IC50 (PPC-1; PPC-1, 96 h, drug incubation time 4 days) of the same compound?
The IC50 was 2.7 µM.

What about the IC50 (TSU) of the same compound?
Its IC50 is 2.9 µM.

What about the IC50 (HT-29; HT-29, 24 h, drug incubation time 1 day) of the same compound?
The IC50 was 19.8 ± 1 µM.

What about the IC50 (HT-29; HT-29, 96 h, drug incubation time 4 days) of the same compound?
Its IC50 is 10.8 µM.

What about the IC50 (TCCSUP; [1]) of the same compound?
Its IC50 is 9.5 ± 3.6 µM.

What about the IC50 (TCCSUP; [2]) of the same compound?
The IC50 was 4.6 µM.

What about the IC50 (MCF-7; MCF7, 24 h, drug incubation time 1 day) of the same compound?
The IC50 was 3.3 ± 0.6 µM.

And the IC50 (MCF-7; MCF7, 96 h, drug incubation time 4 days)?
Its IC50 is 3.3 ± 0.6 µM.
